Biological target: T1, murine cellular dUTPase (Mus musculus, UniProt Q9CQ43)
T1 construct: gene Dut; FLAG-tagged, expressed in 293T, anti-FLAG immunopurified, 3xFLAG peptide eluted; tag kept; homotrimer
T1 sequence (Q9CQ43 1-162): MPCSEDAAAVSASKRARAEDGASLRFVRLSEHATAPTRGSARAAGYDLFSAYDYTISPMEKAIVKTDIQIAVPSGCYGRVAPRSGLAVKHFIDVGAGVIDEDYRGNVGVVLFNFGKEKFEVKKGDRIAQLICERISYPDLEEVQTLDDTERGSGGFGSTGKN
Experiment: dUTP hydrolysis, read out by PCR with remaining dUTP in place of dTTP (gel)
Type: biochemical
Details: pH 7.5, 37 C, MgCl2, DTT, BSA; 5 mM dUTP stock; 0-25 h

O=c1ccn([C@H]2C[C@H](O)[C@@H](COP(=O)(O)OP(=O)(O)OP(=O)(O)O)O2)c(=O)[nH]1 [dUTP]
dUTP hydrolysis, read out by PCR with remaining dUTP in place of dTTP (gel): used to determine the presence of functional dUTP after incubation

— publication PMC3188543, “The Anti-interferon Activity of Conserved Viral dUTPase ORF54 is Essential for an Effective MHV-68 Infection” (PLoS Pathogens, 2011)
